This note sets out measurements from article PMC10530836, “Synthesis, Molecular Docking, and Biological Evaluation of Novel Anthranilic Acid Hybrid and Its Diamides as Antispasmodics” (International Journal of Molecular Sciences, 2023).

For one assay, the target named is T1, human albumin (Homo sapiens, UniProt P02768).
T1 construct: purchased Octapharma (IP) SPRL Albunorm 20
Description: Inhibition of albumin denaturation (anti-inflammatory activity). The note with it: heat-induced denaturation. The class given is biochemical. As for the experimental part: Anti-denaturation assay was conducted as described by Kumari et al. with slight modifications. The reaction mixture consisted of 0.5 mL of 5% aqueous solution of human albumin (Albunorm 20, Octapharma (IP) SPRL, 1070 Anderlecht, Belgium) and 0.2 mL of the tested compound, dissolved in DMSO, at different concentrations (20–500 μg/mL). The samples were incubated at 37 °C for 15 min. After that, 2.5 mL phosphate-buffered saline (pH 6.3) was added to each tube and the samples were heated for 30 min to 80 °C and then cooled for 5 min. Turbidity was measured spectrophotometrically at 660 nm (Cary 60 UV-Vis, Agilent Technologies, Santa Clara, CA, USA). For the blank sample, a mixture of 2.5 mL buffer and 0.2 mL DMSO was used instead of the compounds, while the product control test lacked the compounds’ concentration having 0.5 mL serum albumin, and 2.5 mL buffer only. The percentage inhibition of protein denaturation was calculated as follows:Percentage of inhibition denaturation = (Absorbancecontrol − Absorbancesample) / Absorbancecontrol × 100
The control represents 100% protein denaturation.
Commercially available over-the-counter non-steroidal anti-inflammatory drugs diclofenac sodium and acetylsalicylic acid were used for comparison. Their anti-inflammatory effect was determined as a percentage of inhibition of albumin denaturation following the same protocol as for the novel compounds.

Assay [1] relates to gastric smooth muscle preparations (SMPs) from Wistar rats. Description: Ex vivo smooth muscle relaxant activity. The note with it: for Tonic relaxation: 5 × 10^−5 mol/L, SM pre-contracted with 1 × 10^−7 mol/L CCh. Also on record: species or system rat. The source says: The utilization of an SM preparation from the corpus of a rat stomach that had been pharmacologically pre-contracted was the main goal of our work. The excitatory neurotransmitter acetylcholine (ACh) in the enteric nervous system is appropriate for this purpose. It affects the digestive system by increasing the amplitude of digestive contractions and peristalsis in the stomach. We evaluated the viability of the SM using their stimulatory impact. Via muscarinic (M2 and M3) receptors, ACh and its counterpart cholinergic agonist carbachol (CCh, carbamylcholine) cause excitatory motor responses in GI SM cells. Unlike ACh, which breaks down quickly, CCh has a long-lasting response. Therefore, we used CCh to start the induced muscle contraction. […] A persistent, prolonged tonic contraction that is brought on by the extracellular inflow of Ca^2+ into SM cells occurs next. The relaxation effects of the tested compounds 3 and 4a–e were investigated by cumulative addition of the tested substances in concentrations of 1 × 10^−7, 5 × 10^−7, 1 × 10^−6, 5 × 10^−6, 1 × 10^−5, 5 × 10^−5, and 1 × 10^−4 mol/L at the plateau of the CCh-induced contraction. In order to measure relaxation, the percent decrease in contractile tension from the 1 × 10^−7 mol/L CCh-induced maximum was used. All subsequent reactions to chemicals were reported as a percentage of the submaximal SM contractile responses elicited by CCh, which were taken as 100% values and expressed as a base value for all subsequent responses (Figure 10A). Results were presented as mean ± SD.
SMPs with dimensions 1.0–1.5 mm wide and 10–12 mm long were obtained from adult male Wistar rats weighing about 270 g. […]
The pH of the solution was measured before each experiment using a pH-meter HI5521 (Hanna Instruments, Smithfield, RI, USA). […]
Experiments were performed to investigate the cumulative dose-dependent relaxation effects of compounds 3 and 4a–e on gastric SMPs, pre-contracted with CCh (1 × 10^−^7 mol/L). The CA of the SMPs and the changes in substance-evoked reactions were detected isometrically. […]

T1 sequence (P02768 25-609): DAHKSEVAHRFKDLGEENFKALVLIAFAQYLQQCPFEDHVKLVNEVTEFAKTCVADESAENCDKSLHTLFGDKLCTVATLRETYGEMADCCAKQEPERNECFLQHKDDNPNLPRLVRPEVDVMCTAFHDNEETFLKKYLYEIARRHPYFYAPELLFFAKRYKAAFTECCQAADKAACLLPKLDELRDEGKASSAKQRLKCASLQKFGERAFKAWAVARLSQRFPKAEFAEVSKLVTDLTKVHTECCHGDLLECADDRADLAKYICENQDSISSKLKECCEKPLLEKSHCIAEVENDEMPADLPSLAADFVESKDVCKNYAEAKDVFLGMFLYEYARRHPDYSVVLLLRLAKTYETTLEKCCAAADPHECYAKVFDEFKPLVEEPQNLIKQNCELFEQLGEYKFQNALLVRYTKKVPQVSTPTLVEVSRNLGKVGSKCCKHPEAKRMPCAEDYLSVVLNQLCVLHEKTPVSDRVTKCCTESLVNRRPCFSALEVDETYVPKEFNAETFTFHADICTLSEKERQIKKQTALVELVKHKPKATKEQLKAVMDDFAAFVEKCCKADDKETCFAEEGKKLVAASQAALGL

For `Nc1ccccc1C(=O)NCCc1cccc(Cl)c1` [Compound 3, 2-amino-N-(3-chlorophenethyl)benzamide], half-maximal inhibition against human albumin (IC50) was put at 2400 µM. In addition, the Tonic relaxation in assay [1] worked out at 59%. Also, in assay [1] (submaximal concentration of 5 × 10^−5 mol/L), the “effect on amplitude of spontaneous contractions” value is given as “more than 50%”.

For the compound `CC(=O)Nc1ccccc1C(=O)NCCc1cccc(Cl)c1` [Compound 4a, 2-acetamido-N-(3-chlorophenethyl)benzamide], the Tonic relaxation in assay [1] came to 52%.

Consider `O=C(Nc1ccccc1C(=O)NCCc1cccc(Cl)c1)c1ccccc1` [Compound 4b, 2-benzamido-N-(3-chlorophenethyl)benzamide], for which the concentration for half-maximal inhibition (IC50) (usually the midpoint of a concentration-inhibition curve) on human albumin was 1950 µM.
